Measurements published in ChEMBL document CHEMBL4052645, “Discovery of potent and efficacious pyrrolopyridazines as dual JAK1/3 inhibitors” (Bioorg Med Chem Lett, 2017).

Experiments:
[1] = biological target: Serine/threonine-protein kinase 35 (Homo sapiens) (UniProt Q8TDR2); assay: Inhibition of wild-type human partial length CLIK1 (G182 to A534 residues) expressed in bacterial expression system assessed as residual activity at 50 nM by Kinomescan method relative to control
[2] = biological target: Dual specificity mitogen-activated protein kinase kinase 1 (Homo sapiens) (UniProt Q02750); assay: Inhibition of wild-type human full length MAP2K1 (M1 to V393 residues) expressed in mammalian expression system assessed as residual activity at 50 nM by Kinomescan method relative to control
[3] = biological target: Mitogen-activated protein kinase kinase kinase 5 (Homo sapiens) (UniProt Q99683); assay: Inhibition of wild-type human partial length MAP3K5 (E648 to S964 residues) expressed in bacterial expression system assessed as residual activity at 50 nM by Kinomescan method relative to control
[4] = biological target: BDNF/NT-3 growth factors receptor (Homo sapiens) (UniProt Q16620); assay: Inhibition of wild-type human partial length TRKB (Q547 to G838 residues) expressed in mammalian expression system assessed as residual activity at 50 nM by Kinomescan method relative to control
[5] = biological target: Epithelial discoidin domain-containing receptor 1 (Homo sapiens) (UniProt Q08345); assay: Inhibition of wild-type human partial length DDR1 (R565 to V876 residues) expressed in bacterial expression system assessed as residual activity at 50 nM by Kinomescan method relative to control
[6] = biological target: RAC-gamma serine/threonine-protein kinase (Homo sapiens) (UniProt Q9Y243); assay: Inhibition of wild-type human partial length AKT3 expressed in bacterial expression system assessed as residual activity at 50 nM by Kinomescan method relative to control
[7] = biological target: Cyclin-dependent kinase 18 (Homo sapiens) (UniProt Q07002); assay: Inhibition of wild-type human full length PCTAIRE3 (M3 to F474 residues) expressed in bacterial expression system assessed as residual activity at 50 nM by Kinomescan method relative to control
[8] = biological target: Mitogen-activated protein kinase kinase kinase kinase 5 (Homo sapiens) (UniProt Q9Y4K4); assay: Inhibition of recombinant human KHS1 (M1 to P297 residues) expressed in bacterial expression system assessed as residual activity at 50 nM by Kinomescan method relative to control
[9] = biological target: AP2-associated protein kinase 1 (Homo sapiens) (UniProt Q2M2I8); assay: Inhibition of human wild-type AAK1 (G25 to L333 residues) expressed in bacterial expression system assessed as residual activity at 50 nM by Kinomescan method relative to control
[10] = biological target: Dual serine/threonine and tyrosine protein kinase (Homo sapiens) (UniProt Q6XUX3); assay: Inhibition of wild-type human full length RIPK5 (M1 to T929 residues) expressed in mammalian expression system assessed as residual activity at 50 nM by Kinomescan method relative to control
[11] = biological target: Wee1-like protein kinase (Homo sapiens) (UniProt P30291); assay: Inhibition of wild-type human partial length WEE1 (M291 to K575 residues) expressed in bacterial expression system assessed as residual activity at 50 nM by Kinomescan method relative to control
[12] = biological target: ALK tyrosine kinase receptor (Homo sapiens) (UniProt Q9UM73); assay: Inhibition of wild-type human partial length ALK (I1088 to E1409 residues) expressed in mammalian expression system assessed as residual activity at 50 nM by Kinomescan method relative to control
[13] = biological target: Serine/threonine-protein kinase tousled-like 1 (Homo sapiens) (UniProt Q9UKI8); assay: Inhibition of wild-type human partial length TLK1 (K447 to A754 residues) expressed in bacterial expression system assessed as residual activity at 50 nM by Kinomescan method relative to control
[14] = biological target: Dual specificity mitogen-activated protein kinase kinase 6 (Homo sapiens) (UniProt P52564); assay: Inhibition of wild-type human partial length MAP2K6 (K36 to D334 residues) expressed in bacterial expression system assessed as residual activity at 50 nM by Kinomescan method relative to control
[15] = biological target: Serine/threonine-protein kinase BRSK1 (Homo sapiens) (UniProt Q8TDC3); assay: Inhibition of wild-type human partial length BRSK1 (M1 to E754 residues) expressed in bacterial expression system assessed as residual activity at 50 nM by Kinomescan method relative to control
[16] = biological target: Dual specificity mitogen-activated protein kinase kinase 2 (Homo sapiens) (UniProt P36507); assay: Inhibition of wild-type human full length MAP2K2 (M1 to V400 residues) expressed in mammalian expression system assessed as residual activity at 50 nM by Kinomescan method relative to control
[17] = biological target: Dual specificity tyrosine-phosphorylation-regulated kinase 1A (Homo sapiens) (UniProt Q13627); assay: Inhibition of wild-type human partial length DYRK1A (H129 to S509 residues) expressed in mammalian expression system assessed as residual activity at 50 nM by Kinomescan method relative to control
[18] = biological target: Homeodomain-interacting protein kinase 1 (Homo sapiens) (UniProt Q86Z02); assay: Inhibition of wild-type human partial length HIPK1 (M146 to I555 residues) expressed in mammalian expression system assessed as residual activity at 50 nM by Kinomescan method relative to control
[19] = biological target: Vascular endothelial growth factor receptor 2 (Homo sapiens) (UniProt P35968); assay: Inhibition of wild-type human partial length KDR (R787 to P1253 residues) expressed in mammalian expression system assessed as residual activity at 50 nM by Kinomescan method relative to control
[20] = biological target: Ribosomal protein S6 kinase alpha-4 (Homo sapiens) (UniProt O75676); assay: Inhibition of wild-type human partial length C-terminal MSK2 kinase domain 2 (M375 to T705 residues) expressed in mammalian expression system assessed as residual activity at 50 nM by Kinomescan method relative to control
[21] = biological target: Tyrosine-protein kinase receptor TYRO3 (Homo sapiens) (UniProt Q06418); assay: Inhibition of wild-type human partial length TYRO3 (S497 to T814 residues) expressed in bacterial expression system assessed as residual activity at 50 nM by Kinomescan method relative to control
[22] = tested on: Phosphatidylinositol 4,5-bisphosphate 3-kinase catalytic subunit alpha isoform (Homo sapiens), P42336 [M1043I]; assay: Inhibition of human partial length PIK3CA M1043I mutant (R108 to N1068 residues) expressed in mammalian expression system assessed as residual activity at 50 nM by Kinomescan method relative to control
[23] = biological target: Mitogen-activated protein kinase kinase kinase 10 (Homo sapiens) (UniProt Q02779); assay: Inhibition of wild-type human partial length MLK2 (V52 to W380 residues) expressed in bacterial expression system assessed as residual activity at 50 nM by Kinomescan method relative to control
[24] = biological target: Platelet-derived growth factor receptor alpha (Homo sapiens) (UniProt P16234); assay: Inhibition of wild-type human partial length PDGFRA (V575 to D1002 residues) expressed in mammalian expression system assessed as residual activity at 50 nM by Kinomescan method relative to control
[25] = biological target: Muscle, skeletal receptor tyrosine-protein kinase (Homo sapiens) (UniProt O15146); assay: Inhibition of wild-type human partial length MUSK (M553 to V869 residues) expressed in bacterial expression system assessed as residual activity at 50 nM by Kinomescan method relative to control

ALK tyrosine kinase receptor (Homo sapiens), sequence (Q9UM73 19-1620 limits assumed): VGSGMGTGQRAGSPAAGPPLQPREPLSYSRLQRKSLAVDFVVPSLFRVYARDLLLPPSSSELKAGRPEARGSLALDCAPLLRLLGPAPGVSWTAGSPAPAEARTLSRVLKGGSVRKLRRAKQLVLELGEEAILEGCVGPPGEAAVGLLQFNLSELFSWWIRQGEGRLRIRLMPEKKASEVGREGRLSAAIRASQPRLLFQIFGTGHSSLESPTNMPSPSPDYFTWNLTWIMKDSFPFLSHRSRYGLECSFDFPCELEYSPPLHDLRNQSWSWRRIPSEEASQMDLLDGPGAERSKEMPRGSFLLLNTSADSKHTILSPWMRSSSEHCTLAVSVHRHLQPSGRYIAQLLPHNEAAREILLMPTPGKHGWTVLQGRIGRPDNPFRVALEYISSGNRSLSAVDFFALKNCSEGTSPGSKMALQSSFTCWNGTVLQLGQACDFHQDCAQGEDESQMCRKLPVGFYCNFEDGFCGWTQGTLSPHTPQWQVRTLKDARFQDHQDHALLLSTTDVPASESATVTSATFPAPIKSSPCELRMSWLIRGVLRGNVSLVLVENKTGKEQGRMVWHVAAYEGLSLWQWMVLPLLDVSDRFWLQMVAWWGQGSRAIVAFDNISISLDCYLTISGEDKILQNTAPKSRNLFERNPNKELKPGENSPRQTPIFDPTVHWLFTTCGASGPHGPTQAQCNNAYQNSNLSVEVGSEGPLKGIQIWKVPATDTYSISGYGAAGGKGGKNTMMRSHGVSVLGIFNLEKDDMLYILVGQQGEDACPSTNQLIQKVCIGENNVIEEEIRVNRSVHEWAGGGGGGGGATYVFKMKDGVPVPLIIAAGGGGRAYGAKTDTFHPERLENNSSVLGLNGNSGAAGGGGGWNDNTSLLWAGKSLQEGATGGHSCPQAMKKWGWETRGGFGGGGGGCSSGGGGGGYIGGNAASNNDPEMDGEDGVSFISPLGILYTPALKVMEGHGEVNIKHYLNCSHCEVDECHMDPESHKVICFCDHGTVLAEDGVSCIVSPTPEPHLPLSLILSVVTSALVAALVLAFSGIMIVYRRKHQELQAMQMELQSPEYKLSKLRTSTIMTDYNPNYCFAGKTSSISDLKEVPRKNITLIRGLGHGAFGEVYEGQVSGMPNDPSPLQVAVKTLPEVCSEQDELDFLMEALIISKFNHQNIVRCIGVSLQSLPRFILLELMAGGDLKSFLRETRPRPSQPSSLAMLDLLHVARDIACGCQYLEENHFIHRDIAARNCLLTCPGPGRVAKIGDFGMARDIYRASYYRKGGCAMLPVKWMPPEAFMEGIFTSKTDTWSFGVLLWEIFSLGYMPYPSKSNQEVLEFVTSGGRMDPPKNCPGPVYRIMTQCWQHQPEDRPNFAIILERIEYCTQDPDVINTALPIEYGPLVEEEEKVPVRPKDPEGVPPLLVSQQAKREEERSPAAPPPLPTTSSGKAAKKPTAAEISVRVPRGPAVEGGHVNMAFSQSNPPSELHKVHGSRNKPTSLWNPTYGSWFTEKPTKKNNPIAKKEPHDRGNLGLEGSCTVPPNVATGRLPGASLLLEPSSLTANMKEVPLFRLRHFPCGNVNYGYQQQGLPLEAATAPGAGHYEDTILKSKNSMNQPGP
Phosphatidylinositol 4,5-bisphosphate 3-kinase catalytic subunit alpha isoform (Homo sapiens), P42336 [M1043I], sequence (P42336 whole entry M1043I, the tested form may be a part, canonical isoform): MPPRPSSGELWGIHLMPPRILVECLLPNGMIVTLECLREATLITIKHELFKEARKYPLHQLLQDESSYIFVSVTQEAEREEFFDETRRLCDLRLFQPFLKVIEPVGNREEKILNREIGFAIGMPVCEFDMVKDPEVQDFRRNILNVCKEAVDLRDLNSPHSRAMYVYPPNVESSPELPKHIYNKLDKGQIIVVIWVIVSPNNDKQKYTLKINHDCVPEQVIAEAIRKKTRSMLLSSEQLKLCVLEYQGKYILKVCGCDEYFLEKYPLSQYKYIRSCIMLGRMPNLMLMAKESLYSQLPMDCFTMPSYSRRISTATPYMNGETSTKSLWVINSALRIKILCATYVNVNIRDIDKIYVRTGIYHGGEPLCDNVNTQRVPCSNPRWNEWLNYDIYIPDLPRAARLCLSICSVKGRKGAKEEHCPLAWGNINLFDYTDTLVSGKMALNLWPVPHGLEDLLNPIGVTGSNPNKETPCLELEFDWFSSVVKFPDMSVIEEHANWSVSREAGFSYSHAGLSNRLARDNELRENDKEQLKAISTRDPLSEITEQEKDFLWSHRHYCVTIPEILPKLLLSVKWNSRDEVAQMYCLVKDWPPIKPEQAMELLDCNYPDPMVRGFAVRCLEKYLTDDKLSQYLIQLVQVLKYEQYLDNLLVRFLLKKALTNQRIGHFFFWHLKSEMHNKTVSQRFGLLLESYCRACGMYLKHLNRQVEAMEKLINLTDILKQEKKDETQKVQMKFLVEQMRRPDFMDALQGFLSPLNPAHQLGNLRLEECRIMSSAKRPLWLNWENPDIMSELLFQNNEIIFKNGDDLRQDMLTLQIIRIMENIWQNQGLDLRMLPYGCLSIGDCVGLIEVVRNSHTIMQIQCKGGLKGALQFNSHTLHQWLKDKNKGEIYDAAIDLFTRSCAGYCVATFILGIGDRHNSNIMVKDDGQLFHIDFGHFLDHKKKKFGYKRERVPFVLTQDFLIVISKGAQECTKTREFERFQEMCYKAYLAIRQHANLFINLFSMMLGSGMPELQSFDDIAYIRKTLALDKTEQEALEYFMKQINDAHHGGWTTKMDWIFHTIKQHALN
Mitogen-activated protein kinase kinase kinase kinase 5 (Homo sapiens), sequence (Q9Y4K4 whole entry, looked up, the tested form may be a part): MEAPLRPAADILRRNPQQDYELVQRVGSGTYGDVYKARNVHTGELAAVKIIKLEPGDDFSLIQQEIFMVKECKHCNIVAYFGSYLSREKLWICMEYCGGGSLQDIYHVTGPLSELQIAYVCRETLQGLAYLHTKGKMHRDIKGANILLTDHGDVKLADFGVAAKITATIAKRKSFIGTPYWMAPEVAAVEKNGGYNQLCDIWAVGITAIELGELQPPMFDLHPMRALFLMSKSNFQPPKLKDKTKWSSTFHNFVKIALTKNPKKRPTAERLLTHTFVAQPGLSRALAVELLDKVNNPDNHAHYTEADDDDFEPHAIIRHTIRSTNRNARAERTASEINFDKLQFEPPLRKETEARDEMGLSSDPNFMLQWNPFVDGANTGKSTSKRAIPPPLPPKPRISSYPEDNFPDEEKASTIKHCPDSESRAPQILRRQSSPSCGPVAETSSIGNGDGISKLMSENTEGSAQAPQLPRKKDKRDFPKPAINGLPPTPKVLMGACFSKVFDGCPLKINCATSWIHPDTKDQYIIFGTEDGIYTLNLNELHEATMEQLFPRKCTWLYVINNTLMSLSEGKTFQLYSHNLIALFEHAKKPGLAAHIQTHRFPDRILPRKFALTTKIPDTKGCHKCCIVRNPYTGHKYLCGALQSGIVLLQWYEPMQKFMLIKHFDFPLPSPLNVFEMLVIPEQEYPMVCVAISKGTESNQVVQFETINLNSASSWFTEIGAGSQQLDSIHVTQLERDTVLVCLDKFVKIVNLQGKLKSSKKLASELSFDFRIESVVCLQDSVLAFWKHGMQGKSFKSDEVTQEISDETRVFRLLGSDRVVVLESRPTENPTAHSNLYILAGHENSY
Tyrosine-protein kinase receptor TYRO3 (Homo sapiens), sequence (Q06418 whole entry, the tested form may be a part, canonical isoform): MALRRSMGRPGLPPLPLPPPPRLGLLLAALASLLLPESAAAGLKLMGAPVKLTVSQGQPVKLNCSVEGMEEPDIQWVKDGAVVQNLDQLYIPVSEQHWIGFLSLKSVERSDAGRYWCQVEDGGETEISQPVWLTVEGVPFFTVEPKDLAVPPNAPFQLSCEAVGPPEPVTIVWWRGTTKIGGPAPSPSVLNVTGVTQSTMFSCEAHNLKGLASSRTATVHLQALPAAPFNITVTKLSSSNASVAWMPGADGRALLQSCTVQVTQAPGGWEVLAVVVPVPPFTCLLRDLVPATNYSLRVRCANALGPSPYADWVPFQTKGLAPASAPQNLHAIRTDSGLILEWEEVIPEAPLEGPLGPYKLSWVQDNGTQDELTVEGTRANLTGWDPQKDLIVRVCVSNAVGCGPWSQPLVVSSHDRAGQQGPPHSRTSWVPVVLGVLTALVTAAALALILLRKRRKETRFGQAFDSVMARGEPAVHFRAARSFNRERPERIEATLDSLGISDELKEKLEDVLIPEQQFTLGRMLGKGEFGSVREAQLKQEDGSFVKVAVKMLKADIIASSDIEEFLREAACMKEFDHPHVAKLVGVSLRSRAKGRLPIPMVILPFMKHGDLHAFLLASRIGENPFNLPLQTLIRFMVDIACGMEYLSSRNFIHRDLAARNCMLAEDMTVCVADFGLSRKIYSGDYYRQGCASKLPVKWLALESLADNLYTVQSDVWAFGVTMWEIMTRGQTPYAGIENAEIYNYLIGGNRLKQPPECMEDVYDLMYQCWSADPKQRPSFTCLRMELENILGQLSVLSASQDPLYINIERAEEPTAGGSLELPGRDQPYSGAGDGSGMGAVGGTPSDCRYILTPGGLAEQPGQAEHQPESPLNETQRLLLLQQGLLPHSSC
Dual specificity mitogen-activated protein kinase kinase 1 (Homo sapiens), sequence (Q02750 whole entry, the tested form may be a part): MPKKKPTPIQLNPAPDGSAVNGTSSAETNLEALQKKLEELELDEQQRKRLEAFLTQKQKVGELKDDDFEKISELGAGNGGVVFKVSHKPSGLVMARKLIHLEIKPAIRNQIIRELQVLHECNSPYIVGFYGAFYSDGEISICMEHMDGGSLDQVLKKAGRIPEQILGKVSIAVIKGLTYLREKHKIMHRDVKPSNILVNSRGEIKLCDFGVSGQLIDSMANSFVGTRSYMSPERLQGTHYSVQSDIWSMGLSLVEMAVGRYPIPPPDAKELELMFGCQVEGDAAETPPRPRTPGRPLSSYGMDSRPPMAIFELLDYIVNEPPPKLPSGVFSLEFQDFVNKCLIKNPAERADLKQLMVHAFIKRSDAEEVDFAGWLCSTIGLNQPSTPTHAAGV

SMILES	Activity [1] [%]	Activity [2] [%]	Activity [3] [%]	Activity [4] [%]	Activity [5] [%]	Activity [6] [%]	Activity [7] [%]	Activity [8] [%]	Activity [9] [%]	Activity [10] [%]	Activity [11] [%]	Activity [12] [%]	Activity [13] [%]	Activity [14] [%]	Activity [15] [%]	Activity [16] [%]	Activity [17] [%]	Activity [18] [%]	Activity [19] [%]	Activity [20] [%]	other results
COc1ccc(-c2cc3c(N[C@@H]4CC[C@](C)(N)C4(C)C)c(C(N)=O)cnn3c2)cn1	87	94	100	100	83	100	100	100	73	74	100	94	80	78	100	100	100	100	88	100	Activity [21]: 89%; Activity [22]: 100%; Activity [23]: 94%; Activity [24]: 97%; Activity [25]: 90%
CC1(C)[C@H](Nc2c(C(N)=O)cnn3cc(-c4ccccc4)cc23)CC[C@]1(C)N	74	80	100	80	100	100	58	80	63	92	97	100	61	100	75	84	73	100	100	98	Activity [21]: 100%; Activity [22]: 66%; Activity [23]: 100%; Activity [24]: 67%; Activity [25]: 43%
